biological target: T1, Orexin/Hypocretin receptor type 1 (Homo sapiens, UniProt O43613); assay: Antagonist activity at human OX1 receptor expressed in CHO cells assessed as reduction in orexin-A induced calcium level at 10 uM incubated for 24 hrs by FLIPR calcium 4 assay; format: functional, cell-based
T1 sequence (O43613 whole entry): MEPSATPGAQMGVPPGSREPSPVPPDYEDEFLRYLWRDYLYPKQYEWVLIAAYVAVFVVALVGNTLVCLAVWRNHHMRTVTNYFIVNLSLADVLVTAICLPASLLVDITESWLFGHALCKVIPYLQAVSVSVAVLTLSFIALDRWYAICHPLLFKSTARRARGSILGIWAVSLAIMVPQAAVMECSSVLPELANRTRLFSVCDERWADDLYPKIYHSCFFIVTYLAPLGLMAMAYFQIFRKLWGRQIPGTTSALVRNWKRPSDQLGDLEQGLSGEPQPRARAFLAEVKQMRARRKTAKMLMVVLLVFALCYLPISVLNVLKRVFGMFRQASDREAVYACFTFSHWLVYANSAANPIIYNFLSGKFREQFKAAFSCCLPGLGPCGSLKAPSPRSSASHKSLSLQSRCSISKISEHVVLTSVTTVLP

Ki [µM] | SMILES
4 | Cc1ccc2c(C(=O)N(C)C)cc(S(=O)(=O)Nc3cccc(NCCNC(=O)c4cccc(C)c4)c3)c-2cc1

biological target: T2, Orexin receptor type 2 (Homo sapiens, UniProt O43614); assay: Antagonist activity at human OX2 receptor expressed in CHO cells assessed as reduction in orexin-A induced calcium level at 10 uM incubated for 24 hrs by FLIPR calcium 4 assay; format: functional, cell-based
T2 sequence (O43614 whole entry): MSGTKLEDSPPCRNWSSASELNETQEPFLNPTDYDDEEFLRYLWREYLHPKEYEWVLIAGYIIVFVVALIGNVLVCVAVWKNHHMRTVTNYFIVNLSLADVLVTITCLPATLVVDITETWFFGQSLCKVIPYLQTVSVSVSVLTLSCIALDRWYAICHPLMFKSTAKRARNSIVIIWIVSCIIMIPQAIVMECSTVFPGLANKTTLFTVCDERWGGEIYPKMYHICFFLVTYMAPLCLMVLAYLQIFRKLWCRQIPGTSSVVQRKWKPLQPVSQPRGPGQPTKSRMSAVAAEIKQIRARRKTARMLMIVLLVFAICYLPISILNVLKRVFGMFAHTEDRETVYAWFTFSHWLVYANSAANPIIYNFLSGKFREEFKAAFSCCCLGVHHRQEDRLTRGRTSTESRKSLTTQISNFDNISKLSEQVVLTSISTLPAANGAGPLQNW

Ki [µM] | SMILES
> 10 | Cc1ccc2c(C(=O)C(F)(F)F)cc(S(=O)(=O)O)c-2cc1
> 10 | CN(C)C(=O)c1ccc2c(C(=O)N(C)C)cc(S(=O)(=O)O)c-2cc1
> 10 | Cc1cccc(C(=O)NCCN(C(=O)C(F)(F)F)c2cccc(NS(=O)(=O)c3cc(C(=O)C(F)(F)F)c4ccc(C(=O)N(C)C)ccc3-4)c2)c1
> 10 | Cc1ccc2c(C(=O)N(C)C)cc(S(=O)(=O)O)c-2cc1
> 10 | CN(C)C(=O)c1ccc2ccc(C(=O)C(F)(F)F)c-2cc1
> 10 | CN(C)C(=O)c1ccc2ccc(C(=O)N(C)C)c-2cc1
5 | Cc1ccc2c(C(=O)C(F)(F)F)cc(S(=O)(=O)Nc3cccc(NCCNC(=O)c4cccc(C)c4)c3)c-2cc1
> 10 | Cc1cccc(C(=O)NCCNc2cccc(NS(=O)(=O)c3cc(C(=O)C(F)(F)F)c4ccc(C(=O)N(C)C)ccc3-4)c2)c1
> 10 | Cc1ccc2c(C(=O)N(C)C)cc(S(=O)(=O)Nc3cccc(N(CCNC(=O)c4cccc(C)c4)C(=O)C(F)(F)F)c3)c-2cc1

biological target: T1, Orexin/Hypocretin receptor type 1; assay: Agonist activity at human OX1 receptor expressed in CHO cells assessed as increase in Ca2+ accumulation level measured after 24 hrs by FLIPR calcium 4 assay; format: functional, cell-based

EC50 [µM] | SMILES
1.62 | Cc1ccc2c(C(=O)N(C)C)cc(S(=O)(=O)Nc3cccc(NCCNC(=O)c4cccc(C)c4)c3)c-2cc1

From ChEMBL document CHEMBL5380877, “Azulene as a biphenyl mimetic in orexin/hypocretin receptor agonists” (Bioorg Med Chem, 2023)
